Assay [1] deals with PD-1/PD-L1 protein/protein interaction (recombinant human PD-L1 and human PD-1) (Homo sapiens (Human), UniProt Q9NZQ7). The experiment in a line: Homogeneous Time-Resolved Fluorescence (HTRF) PD-1/PD-L1 binding assay. As for the experimental part:
Example A. Homogeneous Time-Resolved Fluorescence (HTRF) PD-1/PD-L1 Binding Assay
The assays were conducted in a standard black 384-well polystyrene plate with a final volume of 20 μL. Inhibitors were first serially diluted in DMSO and then added to the plate wells before the addition of other reaction components. The final concentration of DMSO in the assay was 1%. The assays were carried out at 25° C. in the PBS buffer (pH 7.4) with 0.05% Tween-20 and 0.1% BSA. Recombinant human PD-L1 protein (19-238) with a His-tag at the C-terminus was purchased from AcroBiosystems (PD1-H5229). Recombinant human PD-1 protein (25-167) with Fc tag at the C-terminus was also purchased from AcroBiosystems (PD1-H5257). PD-L1 and PD-1 proteins were diluted in the assay buffer and 10 μL was added to the plate well. Plates were centrifuged and proteins were preincubated with inhibitors for 40 minutes. The incubation was followed by the addition of 10 μL of HTRF detection buffer supplemented with Europium cryptate-labeled anti-human IgG (PerkinElmer-AD0212) specific for Fc and anti-His antibody conjugated to SureLight®-Allophycocyanin (APC, PerkinElmer-AD0059H). After centrifugation, the plate was incubated at 25° C. for 60 min. before reading on a PHERAstar FS plate reader (665 nm/620 nm ratio). Final concentrations in the assay were—3 nM PD1, 10 nM PD-L1, 1 nM europium anti-human IgG and 20 nM anti-His-Allophycocyanin. IC50 determination was performed by fitting the curve of percent control activity versus the log of the inhibitor concentration using the GraphPad Prism 5.0 software.

Assay [2] relates to U2OS/PD-L1 cells and Jurkat-PD-1-SHP cells. The experiment in a line: Src homology region 2 domain-containing phosphatase (SHP) assay. It counts as cell-based. The protocol:
Example B. Src Homology Region 2 Domain-Containing Phosphatase (SHP) Assay
U2OS/PD-L1 cells (DiscoveRx Corporation) were maintained in McCoy's 5A medium with addition of 10% FBS, 0.25 μg/ml Puromycin. After removing the culture media, the cell medium was replaced with assay medium (RPMI1640 medium with 1% FBS). The U2OS/PD-L1 cells were then added in 384-well black clear bottom assay plate (CELLCOAT® Tissue Culture Plates, Greiner Bio-One) at 5000 cells per well in 20 μL assay medium. Test compounds were prepared by serial dilution in DMSO and 125 nL compound were first transferred to the 384 REMP plate well (Thermofisher) by ECHO liquid handler (Labcyte) followed with addition of 27.5 μL assay medium. 5 μL/well compounds in the assay medium were transferred to the cell plate with 0.05% DMSO in the final assay at […]. Jurkat-PD-1-SHP cells (DiscoveRx Corporation) were cultured in RPMI1640 medium supplemented with 10% FBS, 250 μg/ml Hygromycin B, 500 μg/ml G418. After the replacement of culture media with assay medium, 5,000 Jurkat-PD-1-SHP cells in 20 μL were dispensed into each well. The assay plate was incubated at 37° C., 5% CO2 for 2 hours before 2.5 μL PathHunter reagent 1 (DiscoveRx Corporation) were added to each well. The assay plate was shaken for 1 min at 350 rpm in the dark followed with addition of 10 μL PathHunter reagent 2 (DiscoveRx Corporation). Chemiluminescent signal was recorded with TopCount reader (Perkin Elmer) after incubation at room temperature for 1 hour. Wells with DMSO were served as the positive controls and wells containing no cells were used as negative controls. IC50 determination was performed by fitting the curve of percentage of control activity versus the log of the compound concentration using the GraphPad Prism 6.0 software.

Assay [3] deals with PD-L1 aAPC/CHO-K1 cells and Jurkat-PD-1-NFAT effector cells. The experiment in a line: Nuclear factor of activated T-cells (NFAT) assay. It counts as cell-based. The protocol:
Example C. Nuclear Factor of Activated T-Cells (NFAT) Assay
PD-L1 aAPC/CHO-K1 cells (Promega) were maintained in F-12 medium with addition of 10% FBS, 200 μg/ml Hygromycin B, 250 μg/ml Geneticin (G418). Jurkat-PD-1-NFAT effector cells (Promega) were cultured in RPMI 1640 medium supplemented with 10% FBS, 100 μg/ml Hygromycin B, 500 μg/ml G418. The culture media of PD-L1 aAPC/CHO-K1 cells were first replaced with assay medium (RPMI1640 medium with 1% FBS). The PD-L1 aAPC/CHO-K1 cells were then added in a white 384-well white clear bottom assay plate (CELLCOAT® Tissue Culture Plates, Greiner Bio-One) at 8000 per well in 10 μL assay medium. Test compounds were prepared by serial dilution in DMSO and 0.8 μL test compounds in DMSO were first transferred to the 384 REMP plate well (Thermofisher) by PlateMate Plus (Thermofisher) followed with addition of 50 μL plating medium. 5 μL compounds in the assay medium were transferred to the cells with 0.4% DMSO in the final assay at 2 μM. After removing the culture media, 10,000 Jurkat-PD-1-NFAT effector cells in 5 μL assay medium was dispensed into each well. The assay plate was incubated at 37° C., 5% CO2 for 24 hours. After the assay plate was equilibrated to room temp for 15 minutes, 20 µL/well of Bio-Glo™ reagent (Promega) were added. After 8 minutes incubation at room temperature, luminescence was read at with Pherastar microplate reader (BMG Labtech). The fold of induction (FOI) was calculated based on the ratio of luminescence normalized to the DMSO wells within each assay plate. The maximum percentage of induction was reported based on the ratio between the highest FOI of each compound and the maximum FOI of control compound within each assay plate. Wells with DMSO were served as the negative controls and wells containing control compound with the highest FOI were used as positive controls. EC50 determination was performed by fitting the curve of percent control activity versus the log of the compound concentration using the GraphPad Prism 6.0 software.

Read-outs that look alike come from different tables or passages of the source.

Sequence of PD-1/PD-L1 protein/protein interaction (recombinant human PD-L1 and human PD-1) (Q9NZQ7 19-238): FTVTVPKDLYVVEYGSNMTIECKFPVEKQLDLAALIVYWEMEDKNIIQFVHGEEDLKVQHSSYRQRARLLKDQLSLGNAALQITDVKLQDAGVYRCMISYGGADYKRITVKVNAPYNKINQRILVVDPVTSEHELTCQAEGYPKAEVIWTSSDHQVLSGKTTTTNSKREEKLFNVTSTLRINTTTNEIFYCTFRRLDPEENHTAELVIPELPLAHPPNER

Regarding `Cc1c(NC(=O)c2nc3c(n2C)CCN(C2CCC(O)CC2)C3)cccc1-c1cccc(NC(=O)c2nc3c(n2C)CCN(CCC24CCC(C(=O)O)(CC2)C4)C3)c1Cl` (single isomer, unassigned) [61 (compound 2), 4-(2-(2-((2-chloro-3′-(5-(4-hydroxycyclohexyl)-1-methyl-4,5,6,7-tetrahydro-1H-imidazo[4,5-c]pyridine-2-carboxamido)-2′-methyl-[1,1′-biphenyl]-3-yl)carbamoyl)-1-methyl-1,4,6,7-tetrahydro-5H-imidazo[4,5-c]pyridin-5-yl)ethyl)bicyclo[2.2.1]heptane-1-carboxylic acid], the half-maximal inhibitory concentration (IC50) in assay [1] was ≤ 5 nM; in assay [2], ≤ 10 nM. This molecule also came in with an EC50 in assay [3] of 10 to 100 nM.
Take `CN1CCc2c(nc(C(=O)Nc3cccc(-c4cccc(NC(=O)c5nc6c(n5C)CCN(CCC57CCC(C(=O)O)(CC5)C7)C6)c4Cl)c3Cl)n2C)C1` [Example 3, 4-(2-(2-((2,2′-dichloro-3′-(1,5-dimethyl-4,5,6,7-tetrahydro-1H-imidazo[4,5-c]pyridine-2-carboxamido)-[1,1′-biphenyl]-3-yl)carbamoyl)-1-methyl-1,4,6,7-tetrahydro-5H-imidazo[4,5-c]pyridin-5-yl)ethyl)bicyclo[2.2.1]heptane-1-carboxylic acid]: the IC50 was ≤ 5 nM in assay [1] and ≤ 10 nM in assay [2] (Homo sapiens, U2OS). The same molecule yielded an EC50 in assay [3] (Cricetulus griseus, CHO-K1) of 10 to 100 nM.
In the same order, the values of `CCN1CCc2c(nc(C(=O)Nc3cccc(-c4cccc(NC(=O)c5nc6c(n5C)CCN(CCC57CCC(C(=O)O)(CC5)C7)C6)c4Cl)c3Cl)n2C)C1` [Example 4, 4-(2-(2-((2,2′-dichloro-3′-(5-ethyl-1-methyl-4,5,6,7-tetrahydro-1H-imidazo[4,5-c]pyridine-2-carboxamido)-[1,1′-biphenyl]-3-yl)carbamoyl)-1-methyl-1,4,6,7-tetrahydro-5H-imidazo[4,5-c]pyridin-5-yl)ethyl)bicyclo[2.2.1]heptane-1-carboxylic acid] are ≤ 5 nM, ≤ 10 nM and 10 to 100 nM.
On the same counts, the results for `CC(C)N1CCc2c(nc(C(=O)Nc3cccc(-c4cccc(NC(=O)c5nc6c(n5C)CCN(CCC57CCC(C(=O)O)(CC5)C7)C6)c4Cl)c3Cl)n2C)C1` [Example 5, 4-(2-(2-((2,2′-dichloro-3′-(5-isopropyl-1-methyl-4,5,6,7-tetrahydro-1H-imidazo[4,5-c]pyridine-2-carboxamido)-[1,1′-biphenyl]-3-yl)carbamoyl)-1-methyl-1,4,6,7-tetrahydro-5H-imidazo[4,5-c]pyridin-5-yl)ethyl)bicyclo[2.2.1]heptane-1-carboxylic acid] are ≤ 5 nM, ≤ 10 nM and ≤ 10 nM.
On the same counts, the results for `Cn1c(C(=O)Nc2cccc(-c3cccc(NC(=O)c4nc5c(n4C)CCN(C4CCC4)C5)c3Cl)c2Cl)nc2c1CCN(CCC13CCC(C(=O)O)(CC1)C3)C2` [Example 6, 4-(2-(2-((2,2′-dichloro-3′-(5-cyclobutyl-1-methyl-4,5,6,7-tetrahydro-1H-imidazo[4,5-c]pyridine-2-carboxamido)-[1,1′-biphenyl]-3-yl)carbamoyl)-1-methyl-1,4,6,7-tetrahydro-5H-imidazo[4,5-c]pyridin-5-yl)ethyl)bicyclo[2.2.1]heptane-1-carboxylic acid] are ≤ 5 nM, ≤ 10 nM and 10 to 100 nM.
Consider `Cn1c(C(=O)Nc2cccc(-c3cccc(NC(=O)c4nc5c(n4C)CCN(Cc4cc(C(=O)O)n[nH]4)C5)c3Cl)c2Cl)nc2c1CCN(CCC13CCC(C(=O)O)(CC1)C3)C2` [Example 26, 5-((2-((3′-(5-(2-(4-carboxybicyclo[2.2.1]heptan-1-yl)ethyl)-1-methyl-4,5,6,7-tetrahydro-1H-imidazo[4,5-c]pyridine-2-carboxamido)-2,2′-dichloro-[1,1′-biphenyl]-3-yl)carbamoyl)-1-methyl-1,4,6,7-tetrahydro-5H-imidazo[4,5-c]pyridin-5-yl)methyl)-1H-pyrazole-3-carboxylic acid], for which the half-inhibitory concentration (IC50) is ≤ 5 nM in assay [1] and ≤ 10 nM in assay [2] (Homo sapiens, U2OS). In assay [3] (Cricetulus griseus, CHO-K1), this molecule gave an EC50 of 10 to 100 nM.
With `Cn1c(C(=O)Nc2cccc(-c3cccc(NC(=O)c4nc5c(n4C)CCN(C4CCOCC4)C5)c3C#N)c2Cl)nc2c1CCN(CCC13CCC(C(=O)O)(CC1)C3)C2` [Example 47, 4-(2-(2-((2-chloro-2′-cyano-3′-(1-methyl-5-(tetrahydro-2H-pyran-4-yl)-4,5,6,7-tetrahydro-1H-imidazo[4,5-c]pyridine-2-carboxamido)-[1,1′-biphenyl]-3-yl)carbamoyl)-1-methyl-1,4,6,7-tetrahydro-5H-imidazo[4,5-c]pyridin-5-yl)ethyl)bicyclo[2.2.1]heptane-1-carboxylic acid], the IC50 in assay [1] is ≤ 5 nM. For the same molecule, the EC50 in assay [3] (Cricetulus griseus, CHO-K1) is 10 to 100 nM.
On the same counts, the results for `C[C@@H](O)CN1CCc2c(nc(C(=O)Nc3cccc(-c4cccc(NC(=O)c5nc6c(n5C)CCN(CCC57CCC(C(=O)O)(CC5)C7)C6)c4Cl)c3C#N)n2C)C1` [Example 49, (R)-4-(2-(2-((2-chloro-2′-cyano-3′-(5-(2-hydroxypropyl)-1-methyl-4,5,6,7-tetrahydro-1H-imidazo[4,5-c]pyridine-2-carboxamido)-[1,1′-biphenyl]-3-yl)carbamoyl)-1-methyl-1,4,6,7-tetrahydro-5H-imidazo[4,5-c]pyridin-5-yl)ethyl)bicyclo[2.2.1]heptane-1-carboxylic Acid] are ≤ 5 nM and 10 to 100 nM.
On the same counts, the results for `Cn1c(C(=O)Nc2cccc(-c3cccc(NC(=O)c4nc5c(n4C)CCN(CCO)C5)c3C#N)c2Cl)nc2c1CCN(CCC13CCC(C(=O)O)(CC1)C3)C2` [Example 50, 4-(2-(2-((2-chloro-2′-cyano-3′-(5-(2-hydroxyethyl)-1-methyl-4,5,6,7-tetrahydro-1H-imidazo[4,5-c]pyridine-2-carboxamido)-[1,1′-biphenyl]-3-yl)carbamoyl)-1-methyl-1,4,6,7-tetrahydro-5H-imidazo[4,5-c]pyridin-5-yl)ethyl)bicyclo[2.2.1]heptane-1-carboxylic acid] are ≤ 5 nM and 10 to 100 nM.

Values taken from patent publication US10618916B2, “Heterocyclic compounds as immunomodulators” (Incyte Corporation, priority 2018, dated 2020).
